Laboratory results: paper PMC5048153 (Scientific Reports, 2016)
Where two headings read alike, the source gives them in different places.

Experiments:
[1] = system: corticosterone-injured PC12 cells; test: Protective effects on corticosterone-injured PC12 cells (MTT); assay type: cell-based, rat; details: 24 h after treatment; for PR (protection rate): 200 μM corticosterone
Description: PC12 cells were purchased from American Type Culture Collection and were maintained in DMEM medium supplemented with penicillin (100 unit/ml), streptomycin (100 μg/ml), 5% fetal bovine serum (FBS), and 10% horse serum at 37 °C in humidified atmosphere with 5% CO2. The detailed procedures were performed referring to the reported literatures. Briefly, PC12 cells of logarithmic growth phase were collected, re-suspended and then seeded at a density of 1 × 10^5 cells per well in 96-well plates and cultured in the DMEM medium with 5% horse serum, 10% FBSfor 24 h.
After incubation with compounds, 20 μl of 5 mg/ml MTT solution was added to each well and cultured at 37 °C for 2 h–4 h. Then, the culture medium was removed, and 150 μl dimethyl sulfoxide(DMSO) was added to each well for 15 min at room temperature. The absorbance of each well was measured at 570 nm using a microplate reader. The protective rates (PR) were calculated according to equation (1).

HEK293 cells = test: Cytotoxicity on HEK293 cells (MTT); assay type: cell-based, human; details: Homo sapiens, HEK293, 100μM, after treatment; read-out: IR (inhibitory rate) HEK293
Description: (§1) Human normal hepatic L02 cells, human embryonic kidney cell line 293 cells (HEK293) and Rattus myoblast cell line H9C2 cells were respectively seeded in 96-well plates at a density of 4 × 10^3 cells per well and cultured in the 1640 or DMEM medium, with the supplement of 10% fetal bovine serum, penicillin (100 unit/ml), streptomycin (100 μg/ml) in a humidified incubator with 5% CO2 for 24 h. […] The cytotoxicities of the compounds were evaluated by MTT method.

L02 cells = test: Cytotoxicity on L02 cells (MTT); assay type: cell-based, human; details: Homo sapiens, L02, 100μM, after treatment; read-out: IR (inhibitory rate) L02
Description: as §1

H9C2 cells = test: Cytotoxicity on H9C2 cells (MTT); assay type: cell-based; details: Rattus norvegicus, 48 h
Description: Human normal hepatic L02 cells, human embryonic kidney cell line 293 cells (HEK293) and Rattus myoblast cell line H9C2 cells were respectively seeded in 96-well plates at a density of 4 × 10^3 cells per well and cultured in the 1640 or DMEM medium, with the supplement of 10% fetal bovine serum, penicillin (100 unit/ml), streptomycin (100 μg/ml) in a humidified incubator with 5% CO2 for 24 h. After adherence, L02, HEK293 and H9C2 cells were exposed to different compounds for another 48 h. The cytotoxicities of the compounds were evaluated by MTT method.

[2] = PAMPA-BBB permeation assay; assay type: in vitro ADME; details: for Papp at 18 h, 100 μg/mL: Pe ± SD (n = 3), pH 7.4
Description: Parallel artificial membrane permeation assay (PAMPA) was performed according to the literature[44] with minor modification. The PVDF (Poly(vinylidene fluoride)) membrane of the donor plate was coated with PBL (Polar Brain Lipid, Avanti, USA) in dodecane (4 μL of 20 mg/mL PBL in dodecane) and the acceptor well was filled with 350 μL of PBS/EtOH (70/30, v/v, pH 7.4) buffer (VD). The tested compound was dissolved in DMSO and then diluted with PBS/EtOH (70/30, v/v, pH 7.4) buffer to reach the concentration of 100 μg/mL in the donor well.
200 μL of the donor solution was added to the donor wells (VA) and the donor filter plate was carefully put on the acceptor plate so that the coated membrane contacted both donor solution and acceptor buffer. Test compound diffused from the donor well through the lipid membrane (area = 0.28 cm^2) to the acceptor well. The concentration of the drug in both donor and the acceptor wells was assessed after 18 hours of incubation at room temperature in triplicate using Varioskan Flash Multimode Reader (Thermo Scientific) at the maximum absorption wavelength of tested compound. Concentration of the compound was calculated from the standard curve and expressed as the permeability (Pe) according to Equation (2):

SD rats = test: Open field locomotor activity; assay type: in vivo, rat; details: ig. 32 mg/kg/day, days 2–15, vs untreated rats
Description: The detailed procedures were performed according to our previous studies. In brief, each SD rat was placed at the center of the open field (50 × 50 cm^2 chamber, 50-cm-high walls, with a 25 cm^2 area in the middle of floor defined as the central square) for 6 min in a quiet room. The animals were gently placed in the center of the platform and were allowed to explore the surroundings. A camera was installed above the center of the field. Immediately after a rat was placed at the center in the open field, the movements and position of the animals were recorded and registered automatically by computerized system. Next test was performed after cleaning the chamber. The traveled tracks of rats were recorded for 6 minutes and the videos of the last 4 minutes were analyzed also by Xeye Animal behavior analysis system.

[3] = system: corticosterone-injured PC12 cells; test: Intracellular calcium ion concentration analysis (Fura-2 AM); assay type: cell-based, rat; details: 200 µM corticosterone and 5 µM drug
Description: The detailed procedures were performed according to the reported literatures. In brief, calcium ion concentration was measured by Fura-2 AM (Thermo Scientific). PC12 cells were treated with compound 6a-1 for 48 hours. Then cells were detached with 0.25% trypsin and centrifuged at 1000 r/min for 5 minutes. The supernatant was removed and the cells were stained with Fura-2 AM according to the manufacturer’s instructions. Fluorescence intensity of labeled cells was photographed for 25 random sights each group using Thermo Scientific Array Scan Infinity.

rat hippocampus [4] = test: Cell survival, proliferation and maturation in the rat hippocampus; assay type: in vivo; details: rats, 21 days
Description: (§2) The detailed procedures were performed according to the reported literatures.
Wistar rats were used herein. Agomelatine were purchased from Dalian Meilun Biotech Company. […] For cell proliferation study, BrdU (200 mg/kg i.p.) was administered 2 h before perfusion. For cell maturation and survival studies, animals received five injections of BrdU (75 mg/kg, 2 h intervals) the first day of treatment and were killed 21 days later. […] was randomly selected 8 visual fields for statistical analysis.

rat hippocampus [5] = test: BDNF, VEGF and IGF-1 level in vivo (ELISA); details: 21-day treatment, i.p. 40 mg/kg, vs vehicle-treated group
Description: as §2
SD rats were killed by decapitation and hippocampi were dissected out and stored at −80 °C until use. Tissue samples were homogenized at 4 °C in Promega lysis buffer for ELISA. Samples were then sonicated and lysates were cleared by centrifugation at 4 °C, 15 000 g. Protein concentrations were determined according to the Bradford assay using bovine serum albumin as standard. Quantifications of VEGF and IGF-1 proteins were measured with Quantikine M mouse VEGF and IGF-1enzyme immunoassay kits and BDNF protein with a mouse ELISA kit.

5-HT2C receptor = molecular target: T1, 5-HT2C receptor (Homo sapiens, UniProt P28335); test: FLIPR assay for 5-HT2C antagonism; assay type: cell-based; details: for inhibition at 100 µM: read-out: Inhibition 5-HT2C
T1 sequence (P28335 33-458): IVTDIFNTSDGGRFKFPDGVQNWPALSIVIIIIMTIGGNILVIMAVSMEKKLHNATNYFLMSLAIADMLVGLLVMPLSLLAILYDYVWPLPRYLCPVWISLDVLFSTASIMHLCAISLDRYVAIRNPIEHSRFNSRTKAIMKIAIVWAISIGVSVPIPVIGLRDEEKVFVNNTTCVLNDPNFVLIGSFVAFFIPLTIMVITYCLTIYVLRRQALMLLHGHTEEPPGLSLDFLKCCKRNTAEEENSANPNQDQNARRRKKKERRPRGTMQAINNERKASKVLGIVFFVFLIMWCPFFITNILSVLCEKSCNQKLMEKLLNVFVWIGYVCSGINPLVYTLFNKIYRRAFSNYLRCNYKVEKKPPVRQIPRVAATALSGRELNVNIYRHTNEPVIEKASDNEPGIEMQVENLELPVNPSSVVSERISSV
Description: Seed cells at the density of 10 K cell/well, 37 °C, 5% CO2 incubate for 16–24 hours, then loading cells with 30 ul of Calcium 5 and 37 °C, 5% CO2 incubate for 1 hour. After transfer compound to compound plate with 30 ul Assay Buffer by Echo, add 15 ul/well of compound, incubate for 10 mins.

**Q.** Which “PR (protection rate)” value ([1]; 5 μM) does the source give for `COc1ccc2c(c1)C(CCNC(C)=O)=NCC2.O=C(O)C(=O)O` [6a-1, N-(2-(7-Methoxy-3,4-dihydroisoquinolin-1-yl)ethyl) acetamide oxalate] here?
**A.** 42.1%

**Q.** And the “PR (protection rate)” value ([1]; […])?
**A.** 37.1%

**Q.** What about the inhibition at 100 µM (HEK293 cells) of the same compound?
**A.** < 20%

**Q.** And the inhibition at 100 µM (L02 cells)?
**A.** < 20%

**Q.** What about the IC50 (H9C2 cells) of the same compound?
**A.** 455 µM

**Q.** What about the “CNS(+/−) prediction of blood-brain barrier penetration” value [2] of the same compound?
**A.** CNS+

**Q.** And the Papp at 18 h, 100 μg/mL [2]?
**A.** 167 ± 4.1 nm/s

**Q.** And the improved travelled distance (SD rats)?
**A.** 131.2%

**Q.** And the “fluorescence intensity of free intracellular calcium ion” value [3]?
**A.** much weaker fluorescence intensity than Fluoxetine and Agomelatine

**Q.** What about the “number of BrdU-labeled neuron cells (proliferation)” value (rat hippocampus [4]; i.p. 40 mg/kg once daily) of the same compound?
**A.** remarkably increased

**Q.** What about the “number of BrdU-labeled neuron cells (survival)” value (rat hippocampus [4]; i.p. 40 mg/kg once daily) of the same compound?
**A.** remarkably increased

**Q.** And the “expression of PSA-NCAM compared with vehicle-treated group” value (rat hippocampus [4]; i.p. 40 mg/kg)?
**A.** reduced the expression of PSA-NCAM

**Q.** What about the “number of NeuN cells compared with vehicle-treated group” value (rat hippocampus [4]; i.p. 40 mg/kg) of the same compound?
**A.** significant (P < 0.001) increase

**Q.** What about the “number of PSA-NCAM-labeled cells relative to Agomelatine group” value (rat hippocampus [4]; i.p. 40 mg/kg) of the same compound?
**A.** approximately three-fold decrease

**Q.** And the “hippocampal IGF-1 level” value (rat hippocampus [5])?
**A.** neither compound 6a-1 nor Agomelatine exerted any influence

**Q.** What about the “hippocampal VEGF level” value (rat hippocampus [5]) of the same compound?
**A.** neither compound 6a-1 nor Agomelatine exerted any influence

**Q.** What about the IC50 (5-HT2C receptor; FLIPR calcium flux, read-out: IC50 5-HT2C antagonism) of the same compound?
**A.** > 100 µM

**Q.** What about the inhibition at 100 µM (5-HT2C receptor) of the same compound?
**A.** 5.2%

**Q.** With `COc1ccc2cccc(CCNC(C)=O)c2c1` [Agomelatine, reference compound] as the compound, how does the “PR (protection rate), Table S1” value ([1]; 1.25µM) read?
**A.** 28.1%

**Q.** What about the “PR (protection rate)” value ([1]; 1.25 μM) of the same compound?
**A.** 28.1%

**Q.** What about the “PR (protection rate)” value ([1]; 5 μM) of the same compound?
**A.** 17.6%

**Q.** And the “PR (protection rate)” value ([1]; […])?
**A.** 24.2%

**Q.** What about the inhibition at 100 µM (HEK293 cells) of the same compound?
**A.** 47.5%

**Q.** And the inhibition at 100 µM (L02 cells)?
**A.** 41.8%

**Q.** What about the IC50 (H9C2 cells) of the same compound?
**A.** 375 µM

**Q.** And the “CNS(+/−) prediction of blood-brain barrier penetration” value [2]?
**A.** CNS+

**Q.** And the Papp at 18 h, 100 μg/mL [2]?
**A.** 178 ± 3.7 nm/s

**Q.** What about the improved travelled distance (SD rats) of the same compound?
**A.** 91.2%

**Q.** And the “fluorescence intensity of free intracellular calcium ion” value [3]?
**A.** weaker fluorescence intensity than corticosterone-injured PC12 cells

**Q.** And the “expression of PSA-NCAM compared with vehicle-treated group” value (rat hippocampus [4]; i.p. 40 mg/kg)?
**A.** reduced the expression of PSA-NCAM

**Q.** What about the “hippocampal IGF-1 level” value (rat hippocampus [5]) of the same compound?
**A.** neither compound 6a-1 nor Agomelatine exerted any influence

**Q.** What about the “hippocampal VEGF level” value (rat hippocampus [5]) of the same compound?
**A.** neither compound 6a-1 nor Agomelatine exerted any influence

**Q.** What about the inhibition at 100 µM (5-HT2C receptor; max tested concentration at 100μM) of the same compound?
**A.** 66.6%
